Source: patent US20200199127A1, “(HETERO)ARYLALKYLAMINO-PYRAZOLOPYRIDAZINE DERIVATIVES HAVING MULTIMODAL ACTIVITY AGAINST PAIN” (priority 2017, published 2020)

Columns and labels:
[1] = target: Human α2δ-1 subunit of Cav2.2 calcium channel (Homo sapiens, UniProt P54289); assay: Human α2δ-1 subunit of Cav2.2 calcium channel assay, [3H]-Gabapentin binding; settings: human α2δ-1 enriched membranes, 15 nM [3H]-Gabapentin; Ki as class symbol
Protocol: Human α2δ-1 Subunit of Cav2.2 Calcium Channel Assay
Human α2δ-1 enriched membranes (2.5 μg) were incubated with 15 nM of radiolabeled [3H]-Gabapentin in assay buffer containing Hepes-KOH 10 mM, pH 7.4. NSB (non specific binding) was measured by adding 10 μM pregabalin. The binding of the test compound was measured at five different concentrations. After 60 min incubation at 27° C., binding reaction was terminated by filtering through Multiscreen GF/C (Millipore) presoaked in 0.5% polyethyleneimine in Vacuum Manifold Station, followed by 3 washes with ice-cold filtration buffer containing 50 mM Tris-HCl, pH 7.4. Filter plates were dried at 60° C. for 1 hour and 30 μl of scintillation cocktail were added to each well before radioactivity reading. Readings were performed in a Trilux 1450 Microbeta radioactive counter (Perkin Elmer).

[2] = target: Human norepinephrine transporter (NET) (Homo sapiens, UniProt P23975); assay: Binding assay to human norepinephrine transporter (NET), [3H]-Nisoxetin; settings: human NET enriched membranes, 5 nM [3H]-Nisoxetin; Ki as class symbol
Protocol: Binding Assay to Human Norepinephrine Transporter (NET).
Human norepinephrine transporter (NET) enriched membranes (5 μg) were incubated with 5 nM of radiolabeled [3H]-Nisoxetin in assay buffer containing 50 mM Tris-HCl, 120 mM NaCl, 5 mM KCl, pH 7.4.
NSB (non specific binding) was measured by adding 10 μM of desipramine. The binding of the test compound was measured at five different concentrations.. After 60 min incubation at 4° C., binding reaction was terminated by filtering through Multiscreen GF/C (Millipore) presoaked in 0.5% polyethyleneimine in Vacuum Manifold Station, followed by 3 washes with ice-cold filtration buffer containing 50 mM Tris-HCl, 0.9% NaCl, pH 7.4.
Filter plates were dried at 60° C. for 1 hour and 30 μl of scintillation cocktail were added to each well before radioactivity reading.

Human α2δ-1 subunit of Cav2.2 calcium channel, sequence (P54289 25-1103): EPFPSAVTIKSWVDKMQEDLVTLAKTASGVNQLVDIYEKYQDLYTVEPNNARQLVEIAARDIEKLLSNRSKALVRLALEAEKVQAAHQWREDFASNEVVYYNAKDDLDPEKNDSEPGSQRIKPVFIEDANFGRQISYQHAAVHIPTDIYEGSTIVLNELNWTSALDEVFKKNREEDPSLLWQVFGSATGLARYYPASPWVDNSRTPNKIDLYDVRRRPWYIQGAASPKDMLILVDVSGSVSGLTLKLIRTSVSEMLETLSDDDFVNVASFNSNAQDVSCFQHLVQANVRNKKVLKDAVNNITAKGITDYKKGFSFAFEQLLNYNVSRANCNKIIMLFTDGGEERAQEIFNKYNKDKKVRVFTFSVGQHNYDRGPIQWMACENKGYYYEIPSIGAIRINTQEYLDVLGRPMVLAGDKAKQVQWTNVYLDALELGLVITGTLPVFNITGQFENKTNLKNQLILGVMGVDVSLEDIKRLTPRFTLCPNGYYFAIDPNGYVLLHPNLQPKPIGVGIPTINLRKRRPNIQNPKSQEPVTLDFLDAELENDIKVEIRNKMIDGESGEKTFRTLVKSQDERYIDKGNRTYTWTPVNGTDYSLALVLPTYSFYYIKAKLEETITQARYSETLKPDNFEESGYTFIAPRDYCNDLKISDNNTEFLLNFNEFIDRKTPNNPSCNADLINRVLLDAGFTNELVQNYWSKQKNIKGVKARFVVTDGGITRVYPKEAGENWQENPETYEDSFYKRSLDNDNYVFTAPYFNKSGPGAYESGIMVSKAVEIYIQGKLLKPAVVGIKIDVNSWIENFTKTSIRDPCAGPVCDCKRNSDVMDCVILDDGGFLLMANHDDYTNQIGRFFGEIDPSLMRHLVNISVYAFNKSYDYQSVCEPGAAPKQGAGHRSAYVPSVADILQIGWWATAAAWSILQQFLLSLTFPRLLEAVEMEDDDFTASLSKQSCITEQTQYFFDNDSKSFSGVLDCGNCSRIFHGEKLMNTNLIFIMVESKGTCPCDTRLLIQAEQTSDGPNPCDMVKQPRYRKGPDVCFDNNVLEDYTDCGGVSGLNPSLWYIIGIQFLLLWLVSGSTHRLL
Human norepinephrine transporter (NET), sequence (P23975 whole entry): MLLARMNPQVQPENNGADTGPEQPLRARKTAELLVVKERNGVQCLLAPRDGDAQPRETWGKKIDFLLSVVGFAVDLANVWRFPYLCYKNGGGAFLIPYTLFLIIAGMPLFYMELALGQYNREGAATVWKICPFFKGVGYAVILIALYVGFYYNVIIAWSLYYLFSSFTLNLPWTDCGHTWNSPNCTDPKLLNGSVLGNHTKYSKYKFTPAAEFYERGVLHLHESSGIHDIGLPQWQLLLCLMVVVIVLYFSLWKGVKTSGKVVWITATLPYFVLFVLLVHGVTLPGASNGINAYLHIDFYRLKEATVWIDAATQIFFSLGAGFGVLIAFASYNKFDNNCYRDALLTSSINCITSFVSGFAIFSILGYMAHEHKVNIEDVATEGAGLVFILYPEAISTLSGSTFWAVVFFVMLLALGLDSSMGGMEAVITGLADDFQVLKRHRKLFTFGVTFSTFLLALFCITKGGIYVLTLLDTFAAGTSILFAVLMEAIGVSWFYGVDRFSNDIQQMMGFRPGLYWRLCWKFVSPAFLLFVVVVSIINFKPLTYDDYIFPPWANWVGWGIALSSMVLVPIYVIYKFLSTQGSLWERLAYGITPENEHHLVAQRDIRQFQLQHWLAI

Row | Ki [1] [nM] | Ki [2] [nM] | SMILES
1 | 100 to 500 | 100 to 500 | CCOc1ccc(-n2nc3c(N(C)CCc4ccccc4)nnc(C)c3c2C)c(F)c1 [Example 3, 2-(4-ethoxy-2-fluorophenyl)-N,3,4-trimethyl-N-phenethyl-2H-pyrazolo[3,4-d]pyridazin-7-amine]
2 | 100 to 500 | 100 to 500 | CCOc1ccc(-n2nc3c(N(C)CCCc4ccccc4)nnc(C)c3c2C)c(F)c1 [Example 4, 2-(4-ethoxy-2-fluorophenyl)-N,3,4-trimethyl-N-(3-phenylpropyl)-2H-pyrazolo[3,4-d]pyridazin-7-amine]
3 | 100 to 500 | > 1000 | CCOc1ccc(-n2nc3c(N(C)CC(O)c4ccccc4)nnc(C)c3c2C)c(F)c1 (stereo not drawn) [Example 5, 2-((2-(4-ethoxy-2-fluorophenyl)-3,4-dimethyl-2H-pyrazolo[3,4-d]pyridazin-7-yl)(methyl)amino)-1-phenylethanol]
4 |  | < 100 | CCOc1ccc(-n2nc3c(N(C)Cc4ccccc4)nnc(C)c3c2C)c(F)c1 [Example 6, N-benzyl-2-(4-ethoxy-2-fluorophenyl)-N,3,4-trimethyl-2H-pyrazolo[3,4-d]pyridazin-7-amine]
5 | 100 to 500 | 500 to 1000 | CCOc1ccc(-n2nc3c(N(C)Cc4ccccn4)nnc(C)c3c2C)c(F)c1 [Example 9, 2-(4-ethoxy-2-fluorophenyl)-N,3,4-trimethyl-N-(pyridin-2-ylmethyl)-2H-pyrazolo[3,4-d]pyridazin-7-amine]
6 | 100 to 500 | 500 to 1000 | CCOc1ccc(-n2nc3c(N(C)Cc4cccnc4)nnc(C)c3c2C)c(F)c1 [Example 10, 2-(4-ethoxy-2-fluorophenyl)-N,3,4-trimethyl-N-(pyridin-3-ylmethyl)-2H-pyrazolo[3,4-d]pyridazin-7-amine]
7 | 100 to 500 | > 1000 | CCOc1ccc(-n2nc3c(N(C)Cc4ccncc4)nnc(C)c3c2C)c(F)c1 [Example 11, 2-(4-ethoxy-2-fluorophenyl)-N,3,4-trimethyl-N-(pyridin-4-ylmethyl)-2H-pyrazolo[3,4-d]pyridazin-7-amine]
8 |  | 100 to 500 | CCOc1ccc(-n2nc3c(N(C)Cc4cccc(O)c4)nnc(C)c3c2C)c(F)c1 [Example 17, 3-(((2-(4-ethoxy-2-fluorophenyl)-3,4-dimethyl-2H-pyrazolo[3,4-d]pyridazin-7-yl)(methyl)amino)methyl)phenol]
9 |  | < 100 | CCOc1ccc(-n2nc3c(N(C)Cc4ccc(O)cc4)nnc(C)c3c2C)c(F)c1 [Example 18, 4-(((2-(4-ethoxy-2-fluorophenyl)-3,4-dimethyl-2H-pyrazolo[3,4-d]pyridazin-7-yl)(methyl)amino)methyl)phenol]
10 |  | 100 to 500 | CCOc1ccc(-n2nc3c(N(C)Cc4ccccc4CO)nnc(C)c3c2C)c(F)c1 [Example 41, (2-(((2-(4-ethoxy-2-fluorophenyl)-3,4-dimethyl-2H-pyrazolo[3,4-d]pyridazin-7-yl)(methyl)amino)methyl)phenyl)meth-anol]
11 |  | 500 to 1000 | CCOc1ccc(-n2nc3c(N(CCO)Cc4ccccc4)nnc(C)c3c2C)c(F)c1 [Example 55, 2-(benzyl(2-(4-ethoxy-2-fluorophenyl)-3,4-dimethyl-2H-pyrazolo[3,4-d]pyridazin-7-yl)amino)ethanol]

More lines, now with the values behind:

Row | SMILES | Ki [1] [nM] | Ki [2] [nM]
12 | CCOc1ccc(-n2nc3c(N(C)Cc4cccc(C)n4)nnc(C)c3c2C)c(F)c1 [Example 1, 2-(4-Ethoxy-2-fluorophenyl)-N,3,4-trimethyl-N-((6-methylpyridin-2-yl)methyl)-2H-pyrazolo[3,4-d]pyridazin-7-amine] | 100 to 500 | 500 to 1000
13 | CCOc1ccc(-n2nc3c(N(C)CCC(O)c4ccccc4)nnc(C)c3c2C)c(F)c1 (stereo not drawn) [Example 2, 3-((2-(4-ethoxy-2-fluorophenyl)-3,4-dimethyl-2H-pyrazolo[3,4-d]pyridazin-7-yl)(methyl)amino)-1-phenylpropan-1-ol] |  | < 100
14 | CCOc1ccc(-n2nc3c(NCCC(O)c4ccccc4)nnc(C)c3c2C)c(F)c1 (stereo not drawn) [Example 7, 3-((2-(4-ethoxy-2-fluorophenyl)-3,4-dimethyl-2H-pyrazolo[3,4-d]pyridazin-7-yl)amino)-1-phenylpropan-1-ol] | 100 to 500 | 100 to 500
15 | CCOc1ccc(-n2nc3c(NC(CCO)c4ccccc4)nnc(C)c3c2C)c(F)c1 (stereo not drawn) [Example 8, 3-((2-(4-ethoxy-2-fluorophenyl)-3,4-dimethyl-2H-pyrazolo[3,4-d]pyridazin-7-yl)amino)-3-phenylpropan-1-ol] | 100 to 500 | > 1000
16 | CCOc1ccc(-n2nc3c(NCC(CO)Cc4ccccc4)nnc(C)c3c2C)c(F)c1 (stereo not drawn) [Example 12, 2-benzyl-3-((2-(4-ethoxy-2-fluorophenyl)-3,4-dimethyl-2H-pyrazolo[3,4-d]pyridazin-7-yl)amino)propan-1-ol] | 100 to 500 | 100 to 500
17 | CCOc1ccc(-n2nc3c(NCc4ccccc4)nnc(C)c3c2C)c(F)c1 [Example 13, N-benzyl-2-(4-ethoxy-2-fluorophenyl)-3,4-dimethyl-2H-pyrazolo[3,4-d]pyridazin-7-amine] | 100 to 500 | 500 to 1000
18 | CCOc1ccc(-n2nc3c(N(C)Cc4ccc(OC)cn4)nnc(C)c3c2C)c(F)c1 [Example 38, 2-(4-ethoxy-2-fluorophenyl)-N-((5-methoxypyridin-2-yl)methyl)-N,3,4-trimethyl-2H-pyrazolo[3,4-d]pyridazin-7-amine] |  | 100 to 500
19 | Cc1nnc(N(C)Cc2ccccn2)c2nn(-c3ccc(Cl)cc3OC(F)(F)F)c(C)c12 [Example 42, 2-(4-chloro-2-(trifluoromethoxy)phenyl)-N,3,4-trimethyl-N-(pyridin-2-ylmethyl)-2H-pyrazolo[3,4-d]pyridazin-7-amine] |  | > 1000
20 | CCOc1ccc(-n2nc3c(N(C)Cc4cc(C)ccn4)nnc(C)c3c2C)c(F)c1 [Example 44, 2-(4-ethoxy-2-fluorophenyl)-N,3,4-trimethyl-N-((4-methylpyridin-2-yl)methyl)-2H-pyrazolo[3,4-d]pyridazin-7-amine] |  | 500 to 1000
21 | CCOc1ccc(-n2nc3c(N(C)Cc4ccccn4)nnc(C)c3c2C)cc1 [Example 46, 2-(4-ethoxyphenyl)-N,3,4-trimethyl-N-(pyridin-2-ylmethyl)-2H-pyrazolo[3,4-d]pyridazin-7-amine] |  | 500 to 1000
22 | CCOc1ccc(-n2nc3c(N(C)CC[C@H](O)c4ccccc4)nnc(C)c3c2C)c(F)c1 [Example 49, (S)-3-((2-(4-Ethoxy-2-fluorophenyl)-3,4-dimethyl-2H-pyrazolo[3,4-d]pyridazin-7-yl)(methyl)amino)-1-phenylpropan-1-ol] |  | < 100
23 | CCOc1ccc(-n2nc3c(N(C)CC[C@@H](O)c4ccccc4)nnc(C)c3c2C)c(F)c1 [Example 50, (R)-3-((2-(4-ethoxy-2-fluorophenyl)-3,4-dimethyl-2H-pyrazolo[3,4-d]pyridazin-7-yl)(methyl)amino)-1-phenylpropan-1-ol] |  | 100 to 500
24 | CCOc1ccc(-n2nc3c(NCC[C@@H](O)c4ccccc4)nnc(C)c3c2C)c(F)c1 [Example 51, (R)-3-((2-(4-Ethoxy-2-fluorophenyl)-3,4-dimethyl-2H-pyrazolo[3,4-d]pyridazin-7-yl)amino)-1-phenylpropan-1-ol] |  | > 1000
25 | CCOc1ccc(-n2nc3c(NCC[C@H](O)c4ccccc4)nnc(C)c3c2C)c(F)c1 [Example 52, (S)-3-((2-(4-ethoxy-2-fluorophenyl)-3,4-dimethyl-2H-pyrazolo[3,4-d]pyridazin-7-yl)amino)-1-phenylpropan-1-ol] |  | 100 to 500
